{"source": "patent US20220155314A1", "about": "“TROPHOBLAST STEM CELL, METHODS OF PREPARATION AND USES THEREOF” (Academia Sinica, priority 2020, published 2022)", "assay_type_in_all_cases": "cell-based, human", "key": {"[1]": {"tested_on": "JEG3 cells", "experiment": "Immunoblotting and quantitative RT-PCR of trophoblast differentiation and stemness genes in JEG3 cells", "settings": "50 μM FSK or 1 mM DB-cAMP", "description": "FIGS. 2A to 2I show the physical and functional interaction between ΔNp63α and GCM1. […] First-trimester and term placental sections were stained with ΔNp63α and GCM1 antibodies (Abs) for immunofluorescence microscopy. Boxed areas are shown at higher magnification and presented below. Arrowhead, asterisk, and arrow indicate trophoblasts expressing ΔNp63α, GCM1, and both, respectively. Nuclei were stained with DAPI. Term placental sections were stained with CK7 Ab for trophoblasts and normal mouse IgG (M-IgG) and rabbit IgG (R-IgG) for negative controls. […] Mock and ΔNp63α-FLAG-expressing BeWo cells were subjected to immunoblotting (left) and quantitative RT-PCR (right) analyses of GCM1, HTRA4, and hCGβ proteins and transcripts. […] BeWo cells stably expressing scramble or GCM1 shRNA were subjected to immunoblotting (left) and quantitative RT-PCR (right) analyses of GCM1 and ΔNp63α proteins and transcripts. […] JEG3 cells were mock treated (DMSO or control buffer (CTRL)) or treated with 50 μM FSK or 1 mM DB-cAMP for 24 h, followed by immunoblotting and quantitative RT-PCR analyses of the indicated trophoblast differentiation and stemness proteins or transcripts. […]\nFIGS. 3A to 3I show reciprocal regulation of GCM1 and ΔNp63α activities in trophoblast differentiation. […] Cell fusion was quantified by fusion index. […]"}, "[2]": {"tested_on": "BeWo cells", "experiment": "Expression of trophoblast stemness and differentiation genes in BeWo cells treated with EGF and chemical inhibitors", "procedure": "FIGS. 6A to 6I show the regulation of trophoblast stemness and differentiation by antagonism between ΔNp63α and GCM1. […] ITGA6-positive term CTBs were cultured in complete TS medium for 5 days and then maintained in the same medium or incomplete medium (vehicle alone without EGF and chemical inhibitors) for an additional 7 days. Cells were subjected to immunofluorescence microscopy of ΔNp63α, GCM1, and hCGβ. […] BeWo cells were incubated in complete or incomplete TS medium supplemented with the indicated growth factor or chemical inhibitor(s) for 24 h. Cells were harvested for quantitative RT-PCR analysis of the indicated stemness or differentiation genes. […] BeWo cells were treated with the indicated concentration of VPA for 24 hours and then harvested for immunoblotting and quantitative RT-PCR analyses of GCM1, ΔNp63α, and hCGβ. […] BeWo cells were transfected with 4XCSL-luciferase in the presence or absence of 2 mM VPA for 48 hours, followed by luciferase assays. […] 293T cells were transfected with pHA-GCM1 and pNotch1IC-FLAG for 48 hours, followed by coimmunoprecipitation analysis and confocal microscopy using FLAG and HA mAbs and GCM1 Ab. […] EGFP-positive mock or Notch1IC-FLAG-expressing BeWo cells were treated with or without 50 μM FSK for 24 h, followed by immunoblotting and quantitative RT-PCR analyses of GCM1, hCGβ or HTRA4. […] BeWo cells were treated with or without 1 mM VPA in the presence or absence of 20 μM MG132 for 8 h and then subjected to immunoblotting analysis of GCM1 and Notch1IC. […] The EGFP-positive mock or Notch1IC-FLAG-expressing BeWo cells were transfected with the GCM1 promoter reporter plasmid E1bLUCGCM1-2K for 48 h and then subjected to luciferase assays. […] BeWo cells and ITGA6-positive term CTBs were cultured under normoxic or hypoxic conditions for 72 h and 7 days, respectively. Cells were then harvested for quantitative RT-PCR analysis of GCM1, ΔNp63α, HTRA4, hCGβ, and MKI67. Means and standard deviations obtained from three independent experiments are presented.\nTo study the effect of EGF and chemical inhibitors on trophoblast differentiation, BeWo cells were cultured in the complete TS medium or in the incomplete TS medium with EGF alone or the indicated chemical inhibitor(s) for 24 h. Cells were then harvested for quantitative RT-PCR or immunoblotting analysis of expression of ΔNp63α, eomesodermin (EOMES), E74-like factor 5 (ELF5) or GCM1 and its target genes."}, "[3]": {"tested_on": "ST-TS^Term#2 cells", "experiment": "STB differentiation from TS^Term#2 cells with cyclocreatine", "settings": "TS^Term#2 cells induced into STBs for 72 h with cyclocreatine (FIG. 11H)", "description": "FIGS. 11A to 11I show the regulation of STB differentiation by the GCM1-CKMT1 axis. […] TS^Term#1, TS^Term#2, and TS#1^GCM1-KO cells and their derivative STBs were subjected to RNA-seq analysis. […] TS^Term#1, TS^Term#2, and TS^Term#3 cells and their derivative STBs were subjected to immunoblotting and quantitative RT-PCR analyses of GCM1, hCGβ or CKMT1 proteins and transcripts. […] Scramble control and CKMT1-knockdown TS^Term#2 cells and their derivative STBs were stained with MitoTracker and CKMT1 Ab for immunofluorescence microscopy. Scale bars in FIGS. 11D and 11E, 100 μm. […] Scramble control and CKMT1-knockdown TS^Term#2 cells and their derivative STBs were subjected to immunoblotting and quantitative RT-PCR analyses of GCM1, hCGβ, LHB or CKMT1 proteins or transcripts. In a separated experiment, cells were stained with E-cadherin Ab for cell fusion analysis. Syncytial margins are marked with a stippled line. Cell fusion efficiency was measured by fusion index or the distribution of syncytia containing varying numbers of nuclei. Scale bar, 100 μm. […] Mock (ST)- or cyclocreatine-treated TS^Term#2 cells (ST+Cyclo-Cr) were induced into STBs for 72 h, followed by immunoblotting analysis of hCGβ protein. […]"}, "[4]": {"tested_on": "Notch signaling", "experiment": "Notch reporter (4xCSL-luciferase) assay", "settings": "BeWo cells; 2 mM VPA, 48 hours (FIG. 6D)", "procedure": "FIGS. 6A to 6I show the regulation of trophoblast stemness and differentiation by antagonism between ΔNp63α and GCM1. […] ITGA6-positive term CTBs were cultured in complete TS medium for 5 days and then maintained in the same medium or incomplete medium (vehicle alone without EGF and chemical inhibitors) for an additional 7 days. Cells were subjected to immunofluorescence microscopy of ΔNp63α, GCM1, and hCGβ. […] BeWo cells were incubated in complete or incomplete TS medium supplemented with the indicated growth factor or chemical inhibitor(s) for 24 h. Cells were harvested for quantitative RT-PCR analysis of the indicated stemness or differentiation genes. […] BeWo cells were treated with the indicated concentration of VPA for 24 hours and then harvested for immunoblotting and quantitative RT-PCR analyses of GCM1, ΔNp63α, and hCGβ. […] BeWo cells were transfected with 4XCSL-luciferase in the presence or absence of 2 mM VPA for 48 hours, followed by luciferase assays. […] EGFP-positive mock or Notch1IC-FLAG-expressing BeWo cells were treated with or without 50 μM FSK for 24 h, followed by immunoblotting and quantitative RT-PCR analyses of GCM1, hCGβ or HTRA4. […] Cells were then harvested for quantitative RT-PCR analysis of GCM1, ΔNp63α, HTRA4, hCGβ, and MKI67. […]"}, "[5]": {"settings": "EGF alone in incomplete TS medium, 24 h (FIG. 6B)"}, "[6]": {"settings": "VPA 24 hours, dose-dependent (FIG. 6C)"}, "[7]": {"settings": "single agent in incomplete TS medium, 24 h (FIG. 6B)"}}, "data": [{"compound": "CCCC(=O)Nc1ncnc2c1ncn2[C@@H]1O[C@@H]2COP(=O)(O)O[C@H]2[C@H]1OC(=O)CCC", "note": "[DB-cAMP, dibutyryl-cAMP]", "values": [{"measurement": "expression of ΔNp63α and trophoblast stemness genes ELF5, EOMES, and TEAD4", "setting": "[1]; 24 h (FIG. 2I)", "value": "decreased expression"}, {"measurement": "expression of GCM1 and its target genes syncytin-1 (SYN1), hCGβ, HTRA4, PGF, and WNT10B", "setting": "[1]; 24 h, immunoblotting and qRT-PCR (FIG. 2I)", "value": "increased expression"}]}, {"compound": "epidermal growth factor (NSDSECPLSHDGYCLHDGVCMYIEALDKYACNCVVGYIGERCQYRDLKWWELR; not fully specified; Epidermal growth factor; UniProt P01133 971-1023, looked up) [EGF, growth factor in complete TS medium]", "values": [{"measurement": "GCM1 and WNT10B expression", "setting": "[2]; [5]", "value": "suppressed"}, {"measurement": "hCGβ expression", "setting": "[2]; [5]", "value": "enhanced"}]}, {"compound": "NC1=NCCN1CC(=O)O", "note": "[cyclocreatine]", "values": [{"measurement": "hCGβ, SYN1, and LHB expression", "setting": "[3]", "value": "suppressed"}]}, {"compound": "CCCC(CCC)C(=O)O", "note": "[VPA, valproic acid]", "values": [{"measurement": "GCM1 and hCGβ expression", "setting": "[2]; [6]", "value": "suppress"}, {"measurement": "ΔNp63α expression", "setting": "[2]; [6]", "value": "increase"}, {"measurement": "Notch reporter plasmid p4×CSL-luciferase activity", "setting": "[4]", "value": "transactivated"}]}, {"compound": "Cc1c[nH]c(-c2cnc(NCCNc3ccc(C#N)cn3)nc2-c2ccc(Cl)cc2Cl)n1", "note": "[CHIR99021]", "values": [{"measurement": "expression of ELF5, TEAD4, and AXIN2", "setting": "[2]; [7]", "value": "upregulation"}, {"measurement": "expression of WNT10B", "setting": "[2]; [7]", "value": "downregulation"}]}]}
